This is an account of results in ChEMBL document CHEMBL2074450 (J Pharmacol Exp Ther, 2002).

The series addresses ATP-dependent translocase ABCB1 (Homo sapiens, UniProt P08183). As to the kind of experiment: TP_TRANSPORTER: transepithelial transport (basal to apical) in HCT-8 cells. Format: functional, cell-based.

ATP-dependent translocase ABCB1, sequence (P08183 whole entry): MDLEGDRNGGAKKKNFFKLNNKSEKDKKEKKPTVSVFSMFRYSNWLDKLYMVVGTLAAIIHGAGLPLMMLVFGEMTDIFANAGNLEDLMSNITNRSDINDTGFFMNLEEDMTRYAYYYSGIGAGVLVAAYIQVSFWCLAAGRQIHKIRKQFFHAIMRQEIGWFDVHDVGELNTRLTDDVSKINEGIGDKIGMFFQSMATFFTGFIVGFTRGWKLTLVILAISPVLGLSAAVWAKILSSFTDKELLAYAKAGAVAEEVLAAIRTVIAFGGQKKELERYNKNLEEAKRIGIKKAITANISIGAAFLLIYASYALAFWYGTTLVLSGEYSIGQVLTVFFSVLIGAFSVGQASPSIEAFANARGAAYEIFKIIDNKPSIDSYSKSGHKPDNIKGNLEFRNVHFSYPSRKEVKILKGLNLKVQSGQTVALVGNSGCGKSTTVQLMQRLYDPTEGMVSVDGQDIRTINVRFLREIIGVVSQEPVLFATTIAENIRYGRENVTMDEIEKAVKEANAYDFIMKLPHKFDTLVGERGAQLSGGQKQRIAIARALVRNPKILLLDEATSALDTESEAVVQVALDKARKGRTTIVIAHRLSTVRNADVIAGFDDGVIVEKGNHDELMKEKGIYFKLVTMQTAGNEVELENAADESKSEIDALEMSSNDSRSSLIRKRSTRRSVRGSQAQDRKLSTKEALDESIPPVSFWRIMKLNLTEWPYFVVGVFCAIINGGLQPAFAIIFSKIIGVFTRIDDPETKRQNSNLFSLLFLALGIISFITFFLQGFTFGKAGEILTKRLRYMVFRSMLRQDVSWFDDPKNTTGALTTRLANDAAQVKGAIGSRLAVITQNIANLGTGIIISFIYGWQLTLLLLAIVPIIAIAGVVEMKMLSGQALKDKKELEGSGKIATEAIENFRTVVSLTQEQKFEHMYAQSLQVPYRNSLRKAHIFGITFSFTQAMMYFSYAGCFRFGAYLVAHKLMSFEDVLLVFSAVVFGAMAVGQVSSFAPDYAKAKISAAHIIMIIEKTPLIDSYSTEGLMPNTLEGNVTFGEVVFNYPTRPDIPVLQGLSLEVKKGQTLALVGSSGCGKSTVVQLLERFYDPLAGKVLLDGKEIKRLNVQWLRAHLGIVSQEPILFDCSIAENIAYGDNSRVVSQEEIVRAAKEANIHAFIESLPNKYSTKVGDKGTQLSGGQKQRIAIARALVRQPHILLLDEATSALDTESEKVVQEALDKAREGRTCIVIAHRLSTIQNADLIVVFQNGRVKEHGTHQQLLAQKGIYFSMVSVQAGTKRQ

For `CO[C@H]1C[C@@H]2CC[C@@H](C)[C@@](O)(O2)C(=O)C(=O)N2CCCC[C@H]2C(=O)O[C@H]([C@H](C)C[C@@H]2CC[C@@H](O)[C@H](OC)C2)CC(=O)[C@H](C)/C=C(\C)[C@@H](O)[C@@H](OC)C(=O)[C@H](C)C[C@H](C)/C=C/C=C/C=C/1C` [SIROLIMUS], the Activity result is “is not a substrate [-]”.
